The values below come from ChEMBL document CHEMBL5303304, “EUbOPEN Chemogenomics Library - IncuCyte” (2023).

Assay type in all cases: toxicity, cell-based
The subject of series [1] is HEK-293T. Put plainly: Incucyte cell viability with HEK293T. To be noted: human, 10 µM, compound concentration 10 uM.
For series [2], the system named is Fibroblast. Put plainly: Incucyte cell viability with human fibroblast. To be noted: 10 µM, compound concentration 10 uM.
Series [3] deals with U2OS. Kind of series: Incucyte cell viability with U2OS. The settings on record: human, 10 µM, compound concentration 10 uM.
Note: unitless GR value; below 1 slowed growth and below 0 cell loss.

`Br.CO[C@H]1CC=C2CCN3CCC4=C(CC(=O)OC4)[C@]23C1`: the “Growth Rate” value in series [1] (0 h, replicate number 2) was 0.77; in series [1] (6 h, replicate number 1), 0.59; in series [2] (0 h, replicate number 1), 0.93; in series [2] (0 h, replicate number 2), 0.3; in series [2] (6 h, replicate number 1), -1; in series [2] (6 h, replicate number 2), 0.8. Moreover, the “Growth Rate” value in series [2] (12 h, replicate number 2) was 0.64; in series [2] (18 h, replicate number 2), 0.7; in series [2] (24 h, replicate number 2), 0.72; in series [3] (6 h, replicate number 1) it was 0.39; in series [3] (6 h, replicate number 2) it was 0.78; in series [3] (12 h, replicate number 2), 0.77. For the same compound, the “Growth Rate” value in series [3] (18 h, replicate number 2) stood at 0.87; in series [3] (24 h, replicate number 2), 1.

Regarding `CC1(C)CC(=O)c2c(SCCO)sc(-c3nccs3)c2C1`, the “Growth Rate” value is reported as 0.82 in series [1] (0 h, replicate number 2); -0.3 in series [2] (0 h, replicate number 2); -1 in series [2] (6 h, replicate number 1); 0.66 in series [3] (6 h, replicate number 1); 0.87 in series [3] (12 h, replicate number 1); 0.97 in series [3] (18 h, replicate number 1). The “Growth Rate” value in series [3] (24 h, replicate number 2) was 0.97.

In the case of `Cc1cc(C)cc(C(=O)NOCCCCCC(=O)NO)c1`, the “Growth Rate” value was found to be 0.89 in series [1] (0 h, replicate number 2); 0.34 in series [1] (12 h, replicate number 1); 0.82 in series [1] (12 h, replicate number 2); 0.12 in series [1] (18 h, replicate number 1); 0.44 in series [1] (18 h, replicate number 2); 0.14 in series [1] (24 h, replicate number 1). Besides, the “Growth Rate” value in series [1] (24 h, replicate number 2) is 0.28; in series [2] (0 h, replicate number 1), -0.28; in series [2] (6 h, replicate number 2), -0.16; in series [2] (12 h, replicate number 1), -0.96; in series [2] (12 h, replicate number 2) it was 0.86; in series [2] (18 h, replicate number 1), -0.74. Besides, the “Growth Rate” value in series [2] (18 h, replicate number 2) is recorded as 0.23; in series [2] (24 h, replicate number 1) it was -0.33; in series [2] (24 h, replicate number 2), 0.51; in series [3] (6 h, replicate number 1) it was 0.62; in series [3] (6 h, replicate number 2) it was 0.86; in series [3] (12 h, replicate number 2) it was 0.58. In addition, the “Growth Rate” value in series [3] (18 h, replicate number 1) is on record as 0.71; in series [3] (18 h, replicate number 2) it was 0.5; in series [3] (24 h, replicate number 1) it was 0.26; in series [3] (24 h, replicate number 2), 0.22.

Regarding `S=c1[nH]nc(-c2cccs2)n1-c1ccccc1`, the “Growth Rate” value in series [1] (0 h, replicate number 2) is 0.81; in series [1] (6 h, replicate number 1), 0.53; in series [1] (6 h, replicate number 2) it was 0.97; in series [1] (12 h, replicate number 1), 0.58; in series [1] (12 h, replicate number 2), 0.73; in series [1] (18 h, replicate number 1), 0.91. The “Growth Rate” value is given as 0.87 in series [1] (18 h, replicate number 2); 0.9 in series [1] (24 h, replicate number 1); 0.83 in series [1] (24 h, replicate number 2); 0.04 in series [2] (0 h, replicate number 1); -0.79 in series [2] (0 h, replicate number 2); -0.3 in series [2] (6 h, replicate number 2). The “Growth Rate” value is recorded as -0.72 in series [2] (12 h, replicate number 1); -0.25 in series [2] (18 h, replicate number 1); 0.01 in series [2] (24 h, replicate number 1); 0.53 in series [3] (0 h, replicate number 1); 0.93 in series [3] (6 h, replicate number 2); 0.8 in series [3] (12 h, replicate number 2). The “Growth Rate” value is listed as 0.95 in series [3] (18 h, replicate number 1) and 0.87 in series [3] (18 h, replicate number 2).

Take `CCCCNc1ncc2c(-c3ccc(CN4CCN(C)CC4)cc3)cn([C@H]3CC[C@H](O)CC3)c2n1`: the “Growth Rate” value in series [1] (0 h, replicate number 2) was 0.42; in series [1] (6 h, replicate number 1), -0.33; in series [1] (6 h, replicate number 2) it was -0.21; in series [1] (12 h, replicate number 1), -0.54; in series [1] (12 h, replicate number 2), -0.55; in series [1] (18 h, replicate number 1) it was -0.43. Besides, the “Growth Rate” value in series [1] (18 h, replicate number 2) is -0.41; in series [1] (24 h, replicate number 1), -0.3; in series [1] (24 h, replicate number 2), -0.28; in series [2] (0 h, replicate number 2) it was -0.9; in series [2] (12 h, replicate number 1) it was 0.6; in series [2] (12 h, replicate number 2) it was 0.3. Also, the “Growth Rate” value was -0.08 in series [2] (18 h, replicate number 1); -0.25 in series [2] (18 h, replicate number 2); -0.18 in series [2] (24 h, replicate number 1); -0.33 in series [2] (24 h, replicate number 2); 0.17 in series [3] (0 h, replicate number 2); 0.4 in series [3] (12 h, replicate number 2). Moreover, the “Growth Rate” value in series [3] (18 h, replicate number 1) was 0.13; in series [3] (18 h, replicate number 2) it was -0.13; in series [3] (24 h, replicate number 1), -0.14; in series [3] (24 h, replicate number 2), -0.3.

For the compound `Nc1nc(-c2nn(Cc3ccccc3F)c3ncccc23)ncc1C1CC1`, the “Growth Rate” value was 0.14 in series [1] (0 h, replicate number 2); -0.93 in series [2] (0 h, replicate number 2); 0.35 in series [2] (6 h, replicate number 1); 0.69 in series [2] (18 h, replicate number 1); 0.73 in series [2] (24 h, replicate number 1); 0.8 in series [2] (24 h, replicate number 2). The “Growth Rate” value in series [3] (6 h, replicate number 1) stood at 0.69; in series [3] (18 h, replicate number 2), 0.87; in series [3] (24 h, replicate number 1), 0.68; in series [3] (24 h, replicate number 2), 0.71.

Regarding `Cn1ncnc1COc1nn2c(-c3cc(F)ccc3F)nnc2cc1C(C)(C)C`, the “Growth Rate” value turned out to be 0.38 in series [1] (0 h, replicate number 2); 0.37 in series [1] (6 h, replicate number 2); 0.42 in series [1] (12 h, replicate number 1); 0.63 in series [1] (12 h, replicate number 2); 0.42 in series [1] (18 h, replicate number 1); 0.77 in series [1] (18 h, replicate number 2). Moreover, the “Growth Rate” value came to 0.28 in series [1] (24 h, replicate number 1); 0.88 in series [1] (24 h, replicate number 2); 0.93 in series [2] (0 h, replicate number 1); 0.29 in series [2] (12 h, replicate number 2); 0.56 in series [2] (18 h, replicate number 2); 0.57 in series [2] (24 h, replicate number 2). Further, the “Growth Rate” value in series [3] (6 h, replicate number 1) was 0.51; in series [3] (12 h, replicate number 2) it was 0.78; in series [3] (18 h, replicate number 2), 0.76; in series [3] (24 h, replicate number 2), 0.76.

Consider `CC[C@@]1(c2ccccc2)NC(=O)N(Cc2ccccc2)C1=O`, for which the “Growth Rate” value turned out to be 0.93 in series [1] (0 h, replicate number 2); 0.77 in series [1] (12 h, replicate number 2); 0.95 in series [1] (18 h, replicate number 1); 0.86 in series [1] (18 h, replicate number 2); 0.84 in series [1] (24 h, replicate number 1); 0.82 in series [1] (24 h, replicate number 2). For the same compound, the “Growth Rate” value in series [2] (0 h, replicate number 1) is given as 0.94; in series [2] (0 h, replicate number 2) it was 0.5; in series [2] (6 h, replicate number 1), -0.93; in series [2] (12 h, replicate number 2) it was 0.07; in series [2] (18 h, replicate number 2), 0.7; in series [2] (24 h, replicate number 2), 0.58. Besides, the “Growth Rate” value is -0.81 in series [3] (0 h, replicate number 2); 0.55 in series [3] (6 h, replicate number 1); 0.99 in series [3] (24 h, replicate number 2).

As to `CC(C)Oc1ccc(F)c(-c2cnc(N)c(C(=O)Nc3cnccc3N3CCC[C@@H](C(=O)O)C3)n2)c1`, the “Growth Rate” value is recorded as 0.37 in series [1] (0 h, replicate number 2); 0.61 in series [1] (6 h, replicate number 2); -0.19 in series [1] (12 h, replicate number 1); -0.28 in series [1] (12 h, replicate number 2); -0.11 in series [1] (18 h, replicate number 1); -0.06 in series [1] (18 h, replicate number 2). For the same compound, the “Growth Rate” value is reported as -0.01 in series [1] (24 h, replicate number 1); 0.05 in series [1] (24 h, replicate number 2); 0.44 in series [2] (0 h, replicate number 1); -1 in series [2] (6 h, replicate number 1); 0.97 in series [2] (18 h, replicate number 2); 0.61 in series [2] (24 h, replicate number 2). In addition, the “Growth Rate” value is on record as -0.44 in series [3] (0 h, replicate number 2) and 0.84 in series [3] (24 h, replicate number 1).

On to `C=CC(=O)Nc1cccc(C(=O)Nc2ccc(NC(=O)c3cccc(-c4ccn[nH]4)n3)cc2)c1`, for which the “Growth Rate” value is on record as 0.5 in series [1] (0 h, replicate number 2); 0.54 in series [1] (6 h, replicate number 1); 0.82 in series [1] (6 h, replicate number 2); 0.37 in series [1] (12 h, replicate number 2); 0.81 in series [1] (18 h, replicate number 1); 0.59 in series [1] (18 h, replicate number 2). Besides, the “Growth Rate” value is recorded as 0.55 in series [1] (24 h, replicate number 2); 0 in series [2] (0 h, replicate number 1); -0.7 in series [2] (6 h, replicate number 1); -0.99 in series [3] (0 h, replicate number 1); -0.56 in series [3] (0 h, replicate number 2); 0.92 in series [3] (24 h, replicate number 2).

Turning to `CCCCC/C=C/C=C1/C(=O)C=C[C@@H]1C/C=C\CCCC(=O)O`, the “Growth Rate” value in series [1] (0 h, replicate number 2) is listed as -0.01; in series [1] (12 h, replicate number 1), 0.88; in series [1] (12 h, replicate number 2), 0.95; in series [1] (18 h, replicate number 1), 0.89; in series [1] (18 h, replicate number 2), 0.98; in series [1] (24 h, replicate number 1), 0.86. In addition, the “Growth Rate” value in series [1] (24 h, replicate number 2) is given as 0.94; in series [2] (0 h, replicate number 2), -0.86; in series [2] (6 h, replicate number 1) it was 0.99; in series [2] (12 h, replicate number 2) it was 0.93; in series [2] (18 h, replicate number 1), 0.94; in series [2] (18 h, replicate number 2) it was 0.89. In addition, the “Growth Rate” value in series [2] (24 h, replicate number 1) is 0.72; in series [2] (24 h, replicate number 2) it was 0.7; in series [3] (0 h, replicate number 2), -0.2; in series [3] (6 h, replicate number 2), 0.82; in series [3] (12 h, replicate number 2), 0.62; in series [3] (18 h, replicate number 1), 0.74. The “Growth Rate” value in series [3] (18 h, replicate number 2) stood at 0.7; in series [3] (24 h, replicate number 1) it was 0.68; in series [3] (24 h, replicate number 2), 0.85.

With `COc1cc(C(C)C)c(Oc2cnc(NC(CO)CO)nc2N)cc1I`, the “Growth Rate” value in series [1] (0 h, replicate number 2) came to 0.85; in series [1] (6 h, replicate number 2), 0.97; in series [1] (12 h, replicate number 2) it was 0.76; in series [1] (18 h, replicate number 2) it was 0.82; in series [1] (24 h, replicate number 2) it was 0.89; in series [2] (0 h, replicate number 2), 0.81. Also, the “Growth Rate” value in series [2] (6 h, replicate number 1) is -0.93; in series [2] (6 h, replicate number 2), 0.67; in series [2] (12 h, replicate number 2), 0.88; in series [2] (18 h, replicate number 2), 0.94; in series [2] (24 h, replicate number 1), 1; in series [3] (0 h, replicate number 2), -0.32. Also, the “Growth Rate” value in series [3] (6 h, replicate number 1) was found to be 0.05; in series [3] (12 h, replicate number 1) it was 0.93; in series [3] (12 h, replicate number 2), 1; in series [3] (18 h, replicate number 1), 0.97; in series [3] (24 h, replicate number 1), 0.83.
